This assay relates to subtypes of Hu-IFNα. Put plainly: affinity of the peptides in solution and bound to solid supports (affinity chromatography). The format is binding, human. Particulars: both in solution and bound to solid supports. The source says:
Therefore they can be used, when bound to suitable matrices on solid supports, in affinity chromatography for the separation and purification of the subtype Hu-IFNα8. Moreover, when conveniently functionalized, they can be used for the specific detection of Hu-IFNα8 in analytical techniques like the detection of compounds splitted in SDS-PAGE and transferred on nitrocellulose sheets (SDS-PAGE-blotting) or the detection of compounds immobilized on solid supports (enzyme linked immuno sorbent assay or ELISA). Therefore the matrices on solid supports for the affinity chromatography to which the IFNα-AP, IFNω-AP, IFNα-IC and IFNω-IC oligopeptides are linked and the use thereof in the separation and purification of the Hu-IFNα8 protein are a further object of the invention.
Each of the peptides from number 1 to number 6, at the end of the synthesis, has been linked to a solid support useful for affinity chromatographies, preferably made by a polymeric resin based on acrylamide or agarose, and each matrix functionalized in this way has been packed on a chromatographic column on which, at a neutral pH, a mixture of Hu-IFNα having a specific activity between 1 e 100 x 10^5 international units for each milligram of total proteins (IU/mg) and with a Hu-IFNα concentration between 0.1 and 5 x 10^6 IU has been pressed through. […]

As for “H-Gly-Phe-His-Asp-Phe-His-Ser-Asp-Asn-Phe-OH (H-GFHDFHSDNF-OH) [IFNω-AP]”, the “affinity for subtypes of Hu-IFNα” value is reported as “only for some subtypes of Hu-IFNα, mainly for the subtype IFNα8”. On to “H-Gly-Ser-His-Asp-Phe-Cys-Ser-Asp-Asn-Leu-OH (H-GSHDFCSDNL-OH) [IFNα-AP]”, for which the “affinity for subtypes of Hu-IFNα” value is “only for some subtypes of Hu-IFNα, mainly for the subtype IFNα8”.

(Values after patent EP0915099A1, “Antiparallel oligopeptides and hydrophobically complementary oligopeptides, matrices containing them and use thereof in the purification and detection of subtypes of alpha interferon” (ALFA WASSERMANN S.p.A., priority 1997, dated 1999).)
